Read-outs that look alike come from different tables or passages of the source.
Columns and labels:
PARP1 [1] = molecular target: T1, PARP1 (Homo sapiens, UniProt P09874); test: colorimetric PARP activity assay with recombinant human PARP enzyme; % inhibition at […] ([…] at […]); type: biochemical
PARP1 [2] = molecular target: T1, PARP1; test: as above; type: biochemical; remark: listed apart in the source

T1 sequence (P09874 2-1014): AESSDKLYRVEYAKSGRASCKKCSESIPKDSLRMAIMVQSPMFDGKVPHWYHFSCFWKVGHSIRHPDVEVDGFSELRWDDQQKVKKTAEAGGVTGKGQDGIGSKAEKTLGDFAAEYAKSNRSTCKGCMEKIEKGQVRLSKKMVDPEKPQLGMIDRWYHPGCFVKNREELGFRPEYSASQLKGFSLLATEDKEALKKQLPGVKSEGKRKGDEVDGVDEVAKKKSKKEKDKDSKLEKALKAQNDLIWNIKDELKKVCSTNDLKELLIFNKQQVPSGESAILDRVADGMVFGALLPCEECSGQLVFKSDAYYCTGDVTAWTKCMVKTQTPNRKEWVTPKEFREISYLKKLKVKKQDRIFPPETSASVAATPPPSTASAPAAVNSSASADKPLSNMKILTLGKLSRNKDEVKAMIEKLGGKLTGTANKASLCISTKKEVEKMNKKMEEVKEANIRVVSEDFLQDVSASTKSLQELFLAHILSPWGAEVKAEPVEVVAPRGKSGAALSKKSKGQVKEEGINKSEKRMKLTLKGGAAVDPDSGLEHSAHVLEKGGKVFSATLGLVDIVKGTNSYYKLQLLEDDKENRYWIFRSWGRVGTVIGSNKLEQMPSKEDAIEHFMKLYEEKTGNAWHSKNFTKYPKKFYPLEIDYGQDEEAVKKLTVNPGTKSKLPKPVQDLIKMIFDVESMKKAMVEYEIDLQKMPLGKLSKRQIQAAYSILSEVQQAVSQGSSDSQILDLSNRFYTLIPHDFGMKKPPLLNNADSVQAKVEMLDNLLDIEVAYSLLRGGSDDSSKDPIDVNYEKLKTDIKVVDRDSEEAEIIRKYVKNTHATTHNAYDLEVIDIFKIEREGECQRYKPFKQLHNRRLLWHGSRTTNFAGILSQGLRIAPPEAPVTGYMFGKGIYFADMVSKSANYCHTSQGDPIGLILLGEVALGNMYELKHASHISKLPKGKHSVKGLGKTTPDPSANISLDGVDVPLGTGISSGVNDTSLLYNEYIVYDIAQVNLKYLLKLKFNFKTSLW

SMILES | inhibition at 10 µM (PARP1 [1]) | inhibition at 10 µM (PARP1 [2])
COc1ccc(CSc2nccc(OCC(=O)N3CCN(c4cccc(Cl)c4Cl)CC3)n2)cc1 [5a, 1-(4-(2,3-Dichlorophenyl)piperazin-1-yl)-2-((2-((4-methoxybenzyl)thio)pyrimidin-4-yl)oxy)ethanone] | 70.3% | 
COc1ccc(CSc2nccc(OCC(=O)N3CCN(c4ccc(C)cc4)CC3)n2)cc1 [5e, 2-((2-((4-Methoxybenzyl)thio)pyrimidin-4-yl)oxy)-1-(4-(p-tolyl)piperazin-1-yl)ethanone] |  | 53%

— article PMC9100275, “Development of 1-(4-(Substituted)piperazin-1-yl)-2-((2-((4-methoxybenzyl)thio)pyrimidin-4-yl)oxy)ethanones That Target Poly (ADP-Ribose) Polymerase in Human Breast Cancer Cells” (Molecules, 2022)
